The values that follow come from paper PMC2992454 (ACS chemical neuroscience, 2010).

One assay concerns 20S proteasome. As to conditions: localize inside the 20S subunit along the active proteolytic site; ref [14], [15]; cited from earlier work.
Assay [1] has as its target h20S proteasome, chymotrypsin-like activity (Homo sapiens, UniProt P28074). The assay is described as follows: Kinetic analysis of proteasome chymotrypsin-like activity with or without Aβ. It counts as biochemical. As to conditions: pH 7.8, 37°C; for Vmax: LLVY-AMC 0–200 µM, 40 ng h20S in 100 µL.

For Aβ(1–40): Aβ(1–40) peptides, the “effect on chymotrypsin-like activity of the proteasome” value in the assay on 20S proteasome is “inhibit the chymotrypsin-like activity of the proteasome”.

For the substance “N-Succinyl-Leu-Leu-Val-Tyr-AMC [LLVY-AMC]”, the Vmax in assay [1] (0 µM Aβ(1–42)) is given as 3.1 ± 0.1 x10^−2µM/min; in assay [1] (1 µM oligomeric Aβ(1–42)) it was 3.5 ± 0.2 x10^−2µM/min; in assay [1] (5 µM oligomeric Aβ(1–42)) it was 3.7 ± 0.3 x10^−2µM/min. In assay [1] (oligomeric Aβ(1–42) 0–5 µM, Table 1: 0 and 0.5 µM Aβ, LLVY-AMC), the “Vmax, lower end over all Aβ concentrations” value was determined as 0.031 ± 0.001 µM/min. The “Vmax, upper end over all Aβ concentrations” value in assay [1] (oligomeric Aβ(1–42) 0–5 µM, Table 1: 5 µM Aβ, LLVY-AMC) amounted to 0.037 ± 0.003 µM/min.
